# Tests used:
# [1] = test system: twelve food-borne and clinical bacterial strains; type: cell-based; conditions: ratio of MIC values, Table 2
# Description: Initial activity experiments were carried out with twelve strains from seven bacterial species representing common laboratory strains and clinical strains derived from both food-borne and nosocomial infections (Table 1). Stock cultures were stored at -80°C in 4% (w/v) glycerol, 0.5% (w/v) glucose, 2% (w/v) skimmed milk powder and 3% (w/v) tryptone soy powder. All experiments were carried out with bacteria incubated for one night (i.e. approximately 18 hours) at 37°C. Experiments were performed in cation-adjusted Mueller Hinton II broth (MHB) (Becton Dickinson 212322) adjusted to pH 7.4 or Tryptone Soy Broth (TSB) (Oxoid CM0129) for the ATP leakage assays. Brain Heart Infusion (BHI) (CM1135) with agar (VWR 20768.292) 1.5% as gelling agent was used throughout for colony plating.
# The Minimum Inhibitory Concentration (MIC) of the chimeras was determined against the spectrum of bacteria using the microdilution method according to guidelines of the Clinical and Laboratory Standards Institute (CLSI). Chimera 1:2 serial dilutions were prepared from 1,024 μg/mL stock solutions to give a final range of 512-0.5 μg/mL in the wells. This corresponds to a final range of 144 to 0.14 μM for the heaviest chimera (i.e. chimera 4c) and of 282 to 0.27 μM for the lightest chimera (i.e. chimera 4a). Colonies grown overnight (i.e. approximately 18 hours) on BHI agar were suspended in 0.9% saline to give a turbidity of 0.13 at OD546 (approximately 1 × 10^8 CFU/mL), and then diluted in MHB pH 7.4 to a final concentration of 5 × 10^5 CFU/mL in each well. Following CLSI guidelines the media for testing of Listeria monocytogenes strains were supplemented with 2.5% lysed horse blood. Polypropylene plates (Nunc 442587) were used to minimize peptide binding and incubation time was 18-20 hours at 37°C. MIC was determined in a minimum of two technical replicates as the lowest concentration of the peptide analogue where no visible growth was found. The Minimum Bactericidal Concentration (MBC) was determined by plating 10 μL of the suspension from the first three wells without growth on BHI agar and incubating these for 24 hours at 37°C. MBC was the lowest concentration at which a 99.9% reduction in CFU/mL was observed. Activity is expressed in μmol/L to enable a direct comparison of analogues with different length (= size).
# S. aureus = assay: ATP leakage bioluminescence assay; type: cell-based, Staphylococcus aureus; conditions: 1000 μg/mL chimera
# Description: (§1) Pore formation as caused by peptide addition was determined by measuring ATP leakage from the bacterial cell using a bioluminescence assay. The assay was used to estimate differences between sub-typical chimeras 1, 2 and 3 on S. aureus and S. marcescens and to evaluate the effect of chain length of mixed type chimeras 4a, 4b and 4c on S. aureus. In brief, bacteria were grown in TSB at 37°C for 24 hours and then re-inoculated in TSB at 37°C for 6-8 hours until an absorbance at 546 nm of 2.5 for S. aureus and 2.0 for S. marcescens and then harvested (10 min at 2,000 × g). The bacteria were grown to a high absorbance since a high concentration of bacteria was necessary in order to get a measurable response in the ATP leakage assay. Cells were washed once in 50 mM potassium phosphate buffer (pH 7.0) and once in 50 mM HEPES buffer (pH 7.0), before the pellet was resuspended in HEPES buffer to an OD546 ~ 10, and then stored on ice. Before chimera addition bacteria were pre-incubated with 0.2% (w/v) glucose to energize the cells. In general a chimera dose of 1000 μg/mL (corresponding to 280-552 μM for all chimeras) was used for all assays; however, for determining dose response curves additional doses of 100 (28-55 μM), 250 (71-137 μM) and 500 (140-276 μM) μg/mL were tested, and only the immediate release was noted. Total ATP and extracellular ATP were determined with a luminometer […]. Intracellular volumes of S. aureus and S. marcescens (0.85 μm^3 and 1.7 μm^3, respectively) were subtracted from the total volume before calculating the extracellular ATP concentration; the intracellular ATP concentration could then be calculated from this and the total ATP. ATP leakage kinetics was determined on a bacterial suspension prepared as above. Samples were taken at time 0, 5, 10, 20, 30 and 60 minutes and viable counts determined. Both the ATP leakage assay and killing kinetics performed under the same assay conditions were performed in two independent experiments.
# S. marcescens = assay: ATP leakage bioluminescence assay; type: cell-based, Serratia marcescens; conditions: 1000 μg/mL chimera
# Description: as §1
# [2] = set-up: method as in PMID 18675778; conditions: unilamellar liposomes mimicking human cell membranes; ref [24]; cited from earlier work
compound,measurement,setting,value
CC(=O)N[C@@H](CCCCN)C(=O)N(CCC(=O)N[C@@H](CCCCN)C(=O)N(CCC(=O)N[C@@H](CCCCN)C(=O)N(CCC(=O)N[C@@H](CCCCN)C(=O)N(CCC(=O)N[C@@H](CCCCN)C(=O)N(CCC(=O)N[C@@H](CCCCN)C(=O)N(CCC(=O)N[C@@H](CCCCN)C(=O)N(CCC(=O)N[C@@H](CCCCN)C(=O)N(CCC(N)=O)[C@@H](C)c1ccccc1)[C@@H](C)c1ccccc1)[C@@H](C)c1ccccc1)[C@@H](C)c1ccccc1)[C@@H](C)c1ccccc1)[C@@H](C)c1ccccc1)[C@@H](C)c1ccccc1)[C@@H](C)c1ccccc1 [Chimera 3],lower activity compared to chimera 2 against E.coli,[1],2-7 fold
same,lower activity compared to chimera 2 against S. aureus and K. pneumoniae,[1],6-13 fold
same,ATP leakage (in words),S. aureus,caused leakage of ATP
same,ATP leakage (in words),S. marcescens,caused leakage of ATP
same,ability to induce calcein leakage,[2],positive response
